± gives the expanded uncertainty stated by the source.
Test: wn = mass fraction of the nth substance listed
Settings: 298.2 K, Pendant drop shape

Compound: CCCC[N+](CCCC)(CCCC)CCCC.[Br-] [tetrabutylammonium bromide] + O
- surface tension liquid-gas (w1 = 0.0697): 53.82 ± 1.4 mN/m
- surface tension liquid-gas (w1 = 0.1): 50.58 ± 1.3 mN/m
- surface tension liquid-gas (w1 = 0.14): 49.72 ± 1.2 mN/m
- surface tension liquid-gas (w1 = 0.3): 46.19 ± 1.1 mN/m
- surface tension liquid-gas (w1 = 0.4): 44.48 ± 1.2 mN/m
